Starred links: 1 amine or outer side, 2 acyl side, 3 side chain; linkers in the order of their positions; H or OH if unused. Positions of bridges follow the written chain, without caps; N, C: chain ends. Non-standard residues stand in square brackets, D forms with d. Residues, ends and D or L forms follow the SMILES beside them. Groups on a side chain read outwards from the residue. *: point of attachment. γGlu = O=C(O)[C@H](CCC(=O)[*:2])N[*:1]; Palmitoyl = CCCCCCCCCCCCCCCC(=O)*
Test: in vivo
Set-up: species or system Sprague-Dawley rats
Conditions: rat, iv, 0.033 mg/kg
Procedure: Peptides were dissolved in sterile saline and administered as a 1-hour intravenous infusion to non-fasted male Sprague-Dawley rats (n=3 per group) via femoral vein cannula at a final dose of 0.033 mg/kg. […] Blood samples (approximately 250 μL) were collected for pharmacokinetic analysis via a jugular vein cannula at 0.25, 0.5, 0.75, 1, 1.17, 1.33, 1.5, 2, 4, 6, 8, 24, 30 and 48 hr post-start of infusion into microtainer tubes containing K2EDTA as anticoagulant and 25 μL of a protease inhibitor cocktail. Plasma was prepared by centrifugation and stored at −80° C. until analysis. The results of this analysis are shown in Table 9 and few exemplars in FIGS. 3a-3b. […]
A 60 μL aliquot of each plasma sample was placed into to a 96-well plate. To each well was added 6 μL of 0.5% Tween-20. Plates were then vortexed mixed for 10 minutes at 1200 rpm before 180 μL of 0.1% TFA in 2:1 ethanol:acetonitrile containing an appropriate internal standard was added to each well. Plates were vortex mixed for 5 min at 1300 rpm, and then centrifuged for 10 min at 2844×g. Supernatants (180 μL) were placed into a clean 96-well plate and evaporated under a nitrogen stream at 45° C. Residues were reconstituted in 80 μL of 20% acetonitrile (aq) containing 0.1% formic acid.
A […] aliquot of each plasma sample was diluted with […] of 10 mM ammonium acetate (pH 6.8) containing an appropriate internal standard and loaded onto an Oasis WCX microElution plate (Waters Corporation, Milford, MA) that had been pre-conditioned with […] of methanol and […] of deionized water. Samples were washed with […] of 5% ammonium hydroxide (aq) followed by […] of 20% acetonitrile in water. The analyte was eluted with […] of 5% formic acid in 75:25 acetonitrile:water. The eluent was dried under a nitrogen stream. Residues were reconstituted in 80 μL of 20% acetonitrile (aq) containing 0.1% formic acid.
All calibration standards were prepared in control rat plasma containing K2EDTA and protease inhibitor cocktail.
Samples and standards were analyzed by TurbolonSpray™ UPLC-MS/MS using a system consisting of a CTC HTS PAL auto-injector (Leap, Carrboro, NC), an Agilent Infinity 1290 system with column oven (Palo Alto, CA), a Valco switching valve (Houston, TX), and either an AB Sciex API 5600 TripleTOF™ or Sciex API 4000QTrap mass spectrometer (Framingham, MA). Samples were injected onto a 2.1×50 mm reverse phase C18 analytical column, typically a Waters CORTECS UPLC C18+, 1.6 μm (Waters Corporation, Milford, MA) or similar. […] Initial conditions consisted of 90% A and 10% B. The organic component was increased to 95% B over a period of 3-4 minutes, depending on the peptide. Typical flow rates were 600 μL/min. The column temperature was held constant at 40 or 50° C. Peptides were quantified by monitoring one or more product ions produced from a multiply charged parent ion.

Compound `CCCCCCCCCCCCCCCC(=O)N[C@@H](CCC(=O)N[C@@H](CCC(=O)N[C@@H](CCC(=O)NCCCC[C@@H](NC(=O)[C@H](CCC(=O)O)NC(=O)[C@H](CC(N)=O)NC(=O)[C@H](C)NC(=O)[C@H](CC(C)C)NC(=O)[C@H](CCCNC(=N)N)NC(=O)[C@H](CCC(N)=O)NC(=O)[C@@H](NC(=O)[C@H](C)NC(=O)[C@@H]1CSSC[C@H](NC(=O)[C@@H](N)CO)C(=O)N[C@@H](CC(N)=O)C(=O)N[C@@H]([C@@H](C)O)C(=O)N[C@@H](CO)C(=O)N[C@@H]([C@@H](C)O)C(=O)N1)[C@@H](C)O)C(=O)N[C@@H](Cc1c[nH]cn1)C(=O)N[C@@H](CCCCN)C(=O)N[C@@H](CO)C(=O)N[C@@H](CO)C(=O)N[C@@H](CC(N)=O)C(=O)N[C@@H](CC(N)=O)C(=O)N[C@@H](Cc1ccccc1)C(=O)NCC(=O)N1CCC[C@H]1C(=O)N[C@H](C(=O)N[C@@H](CC(C)C)C(=O)N1CCC[C@H]1C(=O)N1CCC[C@H]1C(=O)N[C@H](C(=O)N[C@@H](CCCCN)C(=O)N[C@H](C(=O)NCC(=O)N[C@@H](CO)C(=O)N[C@@H](CCC(=O)O)C(=O)N[C@H](C(=O)N[C@@H](Cc1ccc(O)cc1)C(N)=O)[C@@H](C)O)C(C)C)[C@@H](C)O)[C@@H](C)CC)C(=O)O)C(=O)O)C(=O)O` [Compound A53] (H-SCNTSTCATQRLANE[dK]([γGlu-γGlu-γGlu-Palmitoyl])HKSSNNFGPILPPTKVGSETY-NH2; disulfide 2-7) has a Vd of 0.174 L/kg, a clearance of 0.478 mL/min/kg and a half-life of 5.16 h.

Work on `CCCCCCCCCCCCCCCC(=O)N[C@@H](CCC(=O)N[C@@H](CCC(=O)NCCCC[C@@H](NC(=O)[C@H](Cc1ccccc1)NC(=O)[C@H](CC(N)=O)NC(=O)[C@H](C)NC(=O)[C@H](CC(C)C)NC(=O)[C@H](CCCNC(=N)N)NC(=O)[C@H](CCC(N)=O)NC(=O)[C@@H](NC(=O)[C@H](C)NC(=O)[C@@H]1CSSC[C@H](NC(=O)[C@@H](N)CO)C(=O)N[C@@H](CC(N)=O)C(=O)N[C@@H]([C@@H](C)O)C(=O)N[C@@H](CO)C(=O)N[C@@H]([C@@H](C)O)C(=O)N1)[C@@H](C)O)C(=O)N[C@@H](Cc1c[nH]cn1)C(=O)N[C@@H](CCCCN)C(=O)N[C@@H](CO)C(=O)N[C@@H](CO)C(=O)N[C@@H](CC(N)=O)C(=O)N[C@@H](CC(N)=O)C(=O)N[C@@H](Cc1ccccc1)C(=O)NCC(=O)N1CCC[C@H]1C(=O)N[C@H](C(=O)N[C@@H](CC(C)C)C(=O)N1CCC[C@H]1C(=O)N1CCC[C@H]1C(=O)N[C@H](C(=O)N[C@@H](CCCCN)C(=O)N[C@H](C(=O)NCC(=O)N[C@@H](CO)C(=O)N[C@@H](CCC(=O)O)C(=O)N[C@H](C(=O)N[C@@H](Cc1ccc(O)cc1)C(N)=O)[C@@H](C)O)C(C)C)[C@@H](C)O)[C@@H](C)CC)C(=O)O)C(=O)O` [Compound A70] (H-SCNTSTCATQRLANF[dK]([γGlu-γGlu-Palmitoyl])HKSSNNFGPILPPTKVGSETY-NH2; disulfide 2-7) yielded a Vd of 0.187 L/kg, a clearance of 3.08 mL/min/kg and a half-life of 0.752 h.

Source: patent US12018059B2, “Human amylin analog polypeptides and methods of use” (Intarcia Therapeutics, Inc., priority 2018, dated 2024)
